Key:
[1] = system: MCF7 human breast adenocarcinoma cells; experiment: MTT cytotoxicity assay, MCF7 cells; format: cell-based
Protocol: (§1) The stability of [1]-Cl-[4]-Cl was evaluated in aqueous phosphate-buffered solution (PBS, pH 7.4) using UV–visible spectroscopy. […] The cytotoxicity of the compounds was measured according to a standard MTT assay against human breast cancer (MCF7 and MCF7CR) and ovarian cancer (A2780 and A2780cis) cell lines, and also nontumorigenic MCF10A and human embryonic kidney HEK293T cells (Table ).
(§2) All cell lines were grown in a humidified 5% CO2 environment at 37 °C in dedicated media. Growth media comprised minimum essential medium (MEM) supplemented with 10% FBS, 1% sodium pyruvate, antibiotics, and antimycotic agents for MCF7. MCF10A cells were cultured in a DMEM/F12 Ham’s mixture supplemented with 5% equine serum, 20 ng/mL EGF, 10 μg/mL insulin, […], antibiotics, and antimycotics. MCF7-CR cells were grown in minimum essential medium (MEM), 10% FBS supplemented with 0.1 mg/mL cisplatin, sodium pyruvate, antibiotics, and antimycotics. A2780 and A2780cis cells were cultured in RPMI 1640 GlutaMAX, and HEK293T cells were cultured in DMEM GlutaMAX medium containing 10% heat-inactivated FBS and antibiotics. The effect exerted on cell viability by the compounds was determined using the 3-(4,5-dimethylthiazol-2-yl)-2,5-diphenyltetrazolium bromide (MTT) assay. After individual treatments with 0–100 μM of the compound for 72 h, MTT was added to the culture media at a final concentration of 0.5 mg/mL and incubated for 2 h at 37 °C. Cisplatin was used as a positive control. The medium was replaced with 100 μL of DMSO, and after 10 min, the optical density was recorded at 550 nm on a microplate reader. At least six cultures were used for each data point. Chemicals (Merck-Sigma, Milan, Italy) and plasticware (Corning, Milan, Italy) were cell culture grade.

[2] = system: MCF7-CR cisplatin-resistant breast cancer cells; experiment: MTT cytotoxicity assay, MCF7CR cells; format: cell-based, human; conditions: 72 h exposure, mean ± SD of three experiments
Protocol: as §1, §2

[3] = system: MCF10A nontumorigenic cells; experiment: MTT cytotoxicity assay, MCF10A cells; format: cell-based, human; conditions: 72 h exposure, mean ± SD of three experiments
Protocol: as §1, §2

[4] = system: A2780 human ovarian carcinoma cells; experiment: MTT cytotoxicity assay, A2780 cells; format: cell-based
Protocol: as §1, §2

[5] = system: A2780cis cisplatin-resistant ovarian cancer cells; experiment: MTT cytotoxicity assay, A2780cis cells; format: cell-based, human; conditions: 72 h exposure, mean ± SD of three experiments
Protocol: as §1, §2

[6] = system: HEK293T human embryonic kidney cells; experiment: MTT cytotoxicity assay, HEK293T cells; format: cell-based; conditions: 72 h exposure, mean ± SD of three experiments
Protocol: as §1, §2

[7] = system: dsDNA oligomer; experiment: SPR biosensor binding to surface-anchored dsDNA oligomer; conditions: surface-blocked DNA oligomer
Protocol: The DNA binding ability of curcuminoid ligands and their complexes was evaluated by using a Surface plasmon resonance (SPR) biosensor. The monoexponential nature of binding kinetics for all the compounds is consistent with the presence of a single high-affinity site on DNA (Figure ).
The binding kinetics/affinities of the molecules of interest for DNA were studied according to a previously described biosensor-based method. Briefly, streptavidin was anchored to a carboxylate surface via EDC/NHS chemistry, and 5′-biotinylated dsDNA oligomer (sequence: 3′-[…]-5′) was coupled to surface-blocked streptavidin. Compounds were independently added to the DNA-coated surface at different concentrations, each time following binding kinetics up to equilibrium. PBS buffer was used for both the dissociation and the regeneration steps. Experimental data were fitted to both mono- and biexponential models, and the validity of each model was assessed by a standard F-test procedure. The binding sites on DNA were mapped according to independent competitive binding assays individually using a minor groove binder (GelRed) and a major groove binder (methyl green), respectively. Briefly, GelRed displacement was monitored by comparing the emission spectra of solutions containing different concentrations of curcuminoid-like ligands/complexes (0–100 μM), 20 μM DNA, and GelRed (10 μM) in 10 mM phosphate buffer, pH 7.4. Similarly, methyl green displacement assay was performed by monitoring the absorbance at 630 nm upon addition of candidate competitors (0–100 μM), 100 μM DNA, and methyl green (10 μM) in 50 mM Tris–HCl buffer and 7.5 mM MgSO4, pH 7.5.

[8] = molecular target: 20S proteasome chymotrypsin-like activity (Homo sapiens, UniProt P28074); experiment: Isolated 20S proteasome, chymotrypsin-like activity (Suc-Leu-Leu-Val-Tyr-AMC); format: biochemical; conditions: 0–100 μM, 1 h, 37 °C, pH 8.0
Protocol: (§3) Proteasome inhibition by the compounds was evaluated with respect to three major activities of the 20S proteasome, namely, chymotrypsin-like, trypsin-like, and caspase-like activities.
(§4) The effect of the compounds on the activity of the isolated 20S proteasome was tested using specific synthetic fluorogenic peptide substrates (Suc-Leu-Leu-Val-Tyr-AMC, Z-Leu-Ser-Thr-Arg-AMC, and Z-Leu-Leu-Glu-AMC for chymotrypsin-like, trypsin-like, and peptidyl glutamyl peptide hydrolase activity, respectively) as reported elsewhere. Briefly, individual mixtures consisting of the compounds (0–100 μM), 1 μg of isolated 20S proteasome, the specific substrate, and 50 mM Tris–HCl pH 8.0 up to a final volume of 100 μL were incubated at 37 °C, and after 1 h, the fluorescence measurements of the hydrolyzed AMC were recorded on a SpectraMax Gemini XPS microplate reader (λexc = 365 nm, λem = 449 nm).

[9] = molecular target: 20S proteasome trypsin-like activity (Homo sapiens, UniProt Q99436); experiment: Isolated 20S proteasome, trypsin-like activity (Z-Leu-Ser-Thr-Arg-AMC); format: biochemical; conditions: 0–100 μM, 1 h, 37 °C, pH 8.0
Protocol: as §3, §4

[10] = molecular target: 20S proteasome PGPH (caspase-like) activity (Homo sapiens, UniProt P28072); experiment: Isolated 20S proteasome, peptidyl glutamyl peptide hydrolase (caspase-like) activity (Z-Leu-Leu-Glu-AMC); format: biochemical; conditions: 0–100 μM, 1 h, 37 °C, pH 8.0
Protocol: as §3, §4

[11] = system: p62; experiment: Western blot quantification of p62 in MCF7 cells; format: cell-based, human; conditions: 10 μM, 24 h
Protocol: Since no significant correlation emerged among cytotoxicity, DNA binding affinity, and proteasome inhibition, the effects of the treatment on the expression levels of p62 were evaluated. p62 is a multifunctional binding protein that is involved in signaling pathways of many cellular activities, including autophagy, whose abnormal expression is associated with malignancies, breast cancer in particular. […] This effect was more evident for the free ligand, in agreement with its higher cytotoxicity to breast cancer cells compared with that of the corresponding ruthenium complex (Figure ).
4 Representative autoradiographs (upper panel) and densitometric analyses (lower panel) of p62 levels in MCF7 cells treated with 10 μM of HZPbdcurc and [3]-Cl for 24 h (*p < 0.01 compared with the control; #p < 0.01 compared with [3]-Cl).
Semiquantitative analysis of p62 was performed by Western blotting upon individual 24 h treatments of MCF-7 cells with 10 μM of HZPbdcurc or [Ru(p-cym)(HZPbdcurc)-Cl]-Cl. Treated cells were lysed, and 15 μg of total protein was electrophoresed on 12% SDS-PAGE, then protein bands were electroblotted onto PVDF membranes (Millipore–Milan, Italy). After incubation with anti-p62 monoclonal antibody (Merck Sigma–Milan, Italy), the bands were immunodetected on a ChemiDoc MP imaging system (Bio-Rad - Milan, Italy). […] Western blot results were analyzed using Fiji software.

[12] = Solubility in water (qualitative); format: physicochemical
[13] = MTT, 72 h exposure, mean ± SD of three experiments

## Cc1ccc(C(C)C)cc1.Oc1ccc(/C=C/c2cc(/C=C/c3ccc(O)cc3)n(-c3ccccn3)n2)cc1.[Cl-].[Cl][Ru+] [[3]Cl, [Ru(p-cym)(HZPbdcurc)Cl]Cl]
[1]; [13]
  IC50: 23 ± 6 µM
[1]; selectivity index, values equal IC50 MCF10A / IC50 MCF7
  SI MCF7 MCF10A: 0.68
[2]
  IC50: 31.9 ± 6 µM
[3]
  IC50: 15.6 ± 8.9 µM
[4]; [13]
  IC50: 2 ± 0.1 µM
[4]; selectivity index, values equal IC50 HEK293T / IC50 A2780
  SI A2780 HEK293T: 9.50
[5]
  IC50: 2.7 ± 0.4 µM
[6]
  IC50: 19 ± 2 µM
[7]
  kass: 10281 ± 5155 M^–1s^–1
  kdiss: 0.02 ± 0.01 s^–1
[7]; equilibrium dissociation constant
  Kd: 2.2 ± 1.5 µM
[8]
  IC50: > 100 µM
[9]
  IC50: > 100 µM
[10]
  IC50: > 100 µM
[11]
  p62 levels: an increase in the levels of p62 was observed
[12]
  solubility in water: partly soluble in H2O

— publication PMC12153055 (Organometallics, 2025)
